In US20100137372A1, “ISOXAZOLINE COMPOUNDS AND THEIR USE IN PEST CONTROL” (priority 2007, published 2010):
Like-named read-outs stand apart in the source and are kept apart here.

Tests used:
[1] = tested on: summer fruit tortrix (Adoxophyes orana); assay: Test Example 2: artificial feed irrigated with test dilution, mortality of summer fruit tortrix larvae; assay type: in vivo; conditions: 168 h
Procedure: The formulation of the present compound (79) obtained according to Formulation Example 5 was diluted with water so as to have an active ingredient concentration of 2,500 ppm. Thus, a test dilution was prepared.
The bottom of a polyethylene cup having a diameter of 5.5 cm was covered with a filter paper having the same diameter. Artificial feed (Silkmate 2S; Nihon Nosan Kogyo K.K.) sliced in a thickness of 2 mm was placed on the filter paper, and 1 mL of the above-mentioned test dilution was irrigated on the artificial feed. After air-drying of the test dilution, a filter paper having a diameter of 5.5 cm was placed on the artificial feed, and 30 first-instar larvae of summer fruit tortrix (Adoxophyes orana) were released on this filter paper, after which the cup was closed with a lid. After 7 days, larvae of summer fruit tortrix were counted and the mortality was calculated by the following equation:
Mortality (t)=(Number of dead larvae/Number of released larvae)×100

[2] = tested on: diamondback moth (Plutella xylostella); assay: Test Example 1: spray of test liquid on cabbage plant, control efficacy against diamondback moth larvae; assay type: in vivo; conditions: 120 h, active ingredient concentration 500 ppm, 20 ml per cup sprayed on cabbage, 10 third-instar larvae, counted after 5 days

| SMILES | mortality at 2500 ppm ([1]; active ingredient concentration 2,500 ppm, 1 mL on artificial feed, 30 first-instar larvae, counted after 7 days, read-out: Mortality) | pest or weed control at 500 ppm [2] | mortality at 2500 ppm [1] |
| --- | --- | --- | --- |
| COC(=O)NNc1cc(C2=NOC(C)(c3ccccc3)C2)ccc1Cl (centres unmarked) [compound number 1-2, reference compound] | 0% | 0% | – |
| N#Cc1ccc(C(=O)Nc2cccc(C3=NOC(c4cc(Cl)cc(Cl)c4)(C(F)(F)F)C3)c2)cc1 (centres unmarked) [present compound (5), N-(3-(5-(3,5-dichlorophenyl)-4,5-dihydro-5-trifluoromethyl-3-isoxazolyl)phenyl)-4-cyanobenzamide] | – | ≥ 80% | – |
| O=C(Nc1cccc(C2=NOC(c3cc(Cl)cc(Cl)c3)(C(F)(F)F)C2)c1)c1cccnc1Cl (centres unmarked) [present compound (7), N-(3-(5-(3,5-dichlorophenyl)-4,5-dihydro-5-trifluoromethyl-3-isoxazolyl)phenyl)-2-chloronicotinamide] | – | ≥ 80% | – |
| Cc1ccc(C2=NOC(c3cc(Cl)cc(Cl)c3)(C(F)(F)F)C2)cc1NC(=O)c1ccccc1F (centres unmarked) [present compound (13), N-(5-(5-(3,5-dichlorophenyl)-4,5-dihydro-5-trifluoromethyl-3-isoxazolyl)-2-methylphenyl)-2-fluorobenzamide] | – | ≥ 80% | – |
| Cc1ccc(C2=NOC(c3cc(Cl)cc(Cl)c3)(C(F)(F)F)C2)cc1NC(=O)c1ccc(F)cc1 (centres unmarked) [present compound (15), N-(5-(5-(3,5-dichlorophenyl)-4,5-dihydro-5-trifluoromethyl-3-isoxazolyl)-2-methylphenyl)-4-fluorobenzamide] | – | ≥ 80% | – |
| Cc1ccc(C2=NOC(c3cc(Cl)cc(Cl)c3)(C(F)(F)F)C2)cc1NC(=O)c1cccc(Cl)c1 (centres unmarked) [present compound (17), N-(5-(5-(3,5-dichlorophenyl)-4,5-dihydro-5-trifluoromethyl-3-isoxazolyl)-2-methylphenyl)-3-chlorobenzamide] | – | ≥ 80% | – |
| COc1ccc(C(=O)Nc2cc(C3=NOC(c4cc(Cl)cc(Cl)c4)(C(F)(F)F)C3)ccc2C)cc1 (centres unmarked) [present compound (30), N-(5-(5-(3,5-dichlorophenyl)-4,5-dihydro-5-trifluoromethyl-3-isoxazolyl)-2-methylphenyl)-4-methoxybenzamide] | – | ≥ 80% | – |
| Cc1ccc(C2=NOC(c3cc(Cl)cc(Cl)c3)(C(F)(F)F)C2)cc1NC(=O)c1ccc(C(F)(F)F)cc1 (centres unmarked) [present compound (31), N-(5-(5-(3,5-dichlorophenyl)-4,5-dihydro-5-trifluoromethyl-3-isoxazolyl)-2-methylphenyl)-4-trifluoromethylbenzamide] | – | ≥ 80% | – |
| C/C=C/C(=O)Nc1cc(C2=NOC(c3cc(Cl)cc(Cl)c3)(C(F)(F)F)C2)ccc1C (centres unmarked) [present compound (48), N-(5-(5-(3,5-dichlorophenyl)-4,5-dihydro-5-trifluoromethyl-3-isoxazolyl)-2-methylphenyl)crotonamide] | – | ≥ 80% | – |
| Cc1ccc(C2=NOC(c3cc(Cl)cc(Cl)c3)(C(F)(F)F)C2)cc1NC(=O)N(C)C (centres unmarked) [present compound (57), 3-(5-(5-(3,5-dichlorophenyl)-4,5-dihydro-5-trifluoromethyl-3-isoxazolyl)-2-methylphenyl)-1,1-dimethylurea] | – | ≥ 80% | – |
| CCOC(=O)Nc1cc(C2=NOC(c3cc(Cl)cc(Cl)c3)(C(F)(F)F)C2)ccc1C (centres unmarked) [present compound (60), N-(5-(5-(3,5-dichlorophenyl)-4,5-dihydro-5-trifluoromethyl-3-isoxazolyl)-2-methylphenyl)-O-ethylcarbamate] | – | ≥ 80% | – |
| Cc1ccc(C2=NOC(c3cc(Cl)cc(Cl)c3)(C(F)(F)F)C2)cc1NC(=O)OCC(C)C (centres unmarked) [present compound (64), N-(5-(5-(3,5-dichlorophenyl)-4,5-dihydro-5-trifluoromethyl-3-isoxazolyl)-2-methylphenyl)-O-isobutylcarbamate] | – | ≥ 80% | – |
| CCc1ccc(C2=NOC(c3cc(Cl)cc(Cl)c3)(C(F)(F)F)C2)cc1NC(=O)CC(F)(F)F (centres unmarked) [present compound (71), N-(3-(5-(3,5-dichlorophenyl)-4,5-dihydro-5-trifluoromethyl-3-isoxazolyl)-6-ethylphenyl)-3,3,3-trifluoropropionylamide] | – | ≥ 80% | – |
| Cc1c(NC(=O)CC(F)(F)F)cccc1C1=NOC(c2cc(Cl)cc(Cl)c2)(C(F)(F)F)C1 (centres unmarked) [present compound (72), N-(3-(5-(3,5-dichlorophenyl)-4,5-dihydro-5-trifluoromethyl-3-isoxazolyl)-2-methylphenyl)-3,3,3-trifluoropropionylamide] | – | ≥ 80% | – |
| COc1ccc(C2=NOC(c3cc(Cl)cc(Cl)c3)(C(F)(F)F)C2)cc1NC(=O)CC(F)(F)F (centres unmarked) [present compound (78), N-(5-(5-(3,5-dichlorophenyl)-4,5-dihydro-5-trifluoromethyl-3-isoxazolyl)-2-methoxyphenyl)-3,3,3-trifluoropropionylamide] | – | ≥ 80% | – |
| COC(=O)Nc1cc(C2=NOC(c3cc(Cl)cc(Cl)c3)(C(F)(F)F)C2)ccc1Cl (centres unmarked) [present compound (79), N-(5-(5-(3,5-dichlorophenyl)-4,5-dihydro-5-trifluoromethyl-3-isoxazolyl)-2-chlorophenyl)-O-methylcarbamate] | – | – | ≥ 80% |
